# According to paper PMC7570852, “Ruthenium(II)/(III) DMSO-Based Complexes of 2-Aminophenyl Benzimidazole with In Vitro and In Vivo Anticancer Activity” (Molecules, 2020):
# Legend:
# [1] = test system: Bax gene expression; test: Real-time qPCR of liver tissue, Bax; assay type: in vivo; settings: liver tissue of EAC-bearing mice, vs untreated
# Description: (§1) RNA was isolated from liver tissues using a RNeasy Mini kit. The integrity and purity of RNA were assessed by 1% agarose gel electrophoresis and nanodrop, respectively. The obtained RNA was reverse transcribed to yield cDNA using Quantiscript reverse transcriptase. Specific primers for Bax, caspase 3, and Bcl2 genes in addition to the housekeeping gene, β actin were designed by the Primer 3 web-based tool based on the published mice sequences (Table 5). Quantitative real-time PCR (qPCR) was performed using QuantiTect SYBR Green qPCR Master Mix in a StepOnePlus real-time PCR system and the melting curve condition and fold change calculation were done as previously described.
# [2] = test system: Bcl2 gene expression; test: Real-time qPCR of liver tissue, Bcl2; assay type: in vivo; settings: liver tissue of EAC-bearing mice, vs untreated
# Description: as §1
# [3] = test system: Caco2 cells; test: DNA fragmentation (agarose gel), Caco2; assay type: cell-based, human; settings: Caco2, 117.6 µg/mL, 4 h
# Description: (§2) MCF7 and Caco2 cells were collected and genomic DNA was extracted using a Gene JET genomic DNA extraction kit following the manufacturer’s protocol (Thermo Scientific, #K0721). The extracted DNA samples were run on a 1.5% agarose gel at 50 V for 2 h and the fragment pattern was visualized by ethidium bromide staining under a UV transilluminator.
# [4] = test system: human colorectal cancer (Caco2) cells; test: MTT cell viability assay, Caco2; assay type: cell-based
# Description: The cytotoxic effect of the Hapbim ligand and its complexes (1) and (2) on human breast cancer (MCF7), human colorectal cancer (Caco2), and human normal liver (THLE-2) cell lines was evaluated by the MTT assay. The cells were cultured in a 96-well plate (1 × 10^4 cells/well, 100 μL/well) containing DMEM medium provided with 10% fetal bovine serum, and 1% penicillin/streptomycin. Then, the cells were incubated at 37 °C for 24 h in a CO2 incubator under 5% CO2, 95% air until reaching a confluence of 70–80%. A 20 μL volume of each compound at different concentrations (from 5 to 400 μM for the cancer cell and from 600 to 1000 μM for the normal cells) was added and the cells were re-incubated for a further 24 h. After the incubation period, the cells were incubated again with 5 mg/mL of MTT for 4 h and then the medium was replaced with 100 μL DMSO and vortexed for 20 min. Finally, the absorbance was recorded at 570 nm using the microplate reader. […] To calculate the cell inhibition percentage, the following equation was used:% Cell inhibition = 100 − % cell viability ((At − Ab)/(Ac − Ab)) × 100%)(4) where At is the absorbance value of tested compound; Ab is the absorbance value of blank; Ac is the absorbance value of the control.
# [5] = test system: MCF7 cells; test: DNA fragmentation (agarose gel), MCF7; assay type: cell-based, human; settings: MCF7, 117.6 µg/mL, 4 h
# Description: as §2
# [6] = test system: caspase 3 gene expression; test: Real-time qPCR of liver tissue, caspase 3; assay type: in vivo; settings: liver tissue of EAC-bearing mice, vs untreated
# Description: as §1
# [7] = test system: Ehrlich ascites carcinoma (EAC) cells; test: EAC cytotoxicity assay in vitro (trypan blue exclusion); assay type: cell-based, mouse; settings: 2 h at 37 °C
# Description: The cytotoxicity determination of compound (2) against EAC cells was calculated by the trypan blue exclusion method. The EAC cells were aspirated from the mouse’s peritoneal cavity by a sterile syringe and immediately transferred into a sterile falcon tube. Then, the cells were washed with sterile PBS to remove any serum or blood traces and centrifuged for 3 min, after which the supernatant was removed. After washing 2–3 times with PBS, the cell pellet was aspirated into a sterile falcon tube and every 1 mL of cell pellet was resuspended in 9 mL of sterile PBS until a concentration of […] in 0.1 mL was achieved, as determined with a hemocytometer; where 0.1 mL of cell suspension was added to 0.880 mL PBS then 20 μL of trypan blue was added. The cells’ viability was checked using a hemocytometer and found to be greater than 98%. […] Cells were visualized and counted under the microscope. For each sample at least 500 cells were counted, and the percent of dead to live cells was calculated. […] The percentage of cell viability was calculated using Equations (5) and (6):(5) % Cytotoxicity=Tdead−Cdead/Ttotal×100% % Viability = 100 − % Cytotoxicity(6) where Tdead is the number of dead cells in the treated tube, Cdead is the number of dead cells in the control tube, and Ttotal is the total number of cells (dead + live) in the treated tube.
smiles,measurement,setting,value
"CS(C)=O.Nc1ccccc1-c1nc2ccccc2[nH]1.O.[Cl][Ru]([Cl])[Cl] [(2), [Ru(III)Cl3(DMSO)(Hapbim)]·H2O]",Bax mRNA level,[1],significant increases
same,Bcl2 gene expression,[2],significant dose-dependent reduction
same,DNA fragmentation,[3],distinct DNA laddering
same,IC50,"[4]; MTT, 24 h",250 ± 10 µM
same,IC50 Caco2,"[4]; MTT, 24 h",129 ± 8 µg/mL
same,Therapeutic index: IC50 of THLE-2 cell/IC50 of Caco2,[4]; in vitro,9.95
same,DNA fragmentation,[5],distinct DNA laddering
same,caspase 3 mRNA level,[6],significant increases
same,IC50 against EAC cells,[7],70 ± 1 µg/mL
